The results in this text go back to patent US10111880B2, “Compounds for the treatment of diabetes and disease complications arising from same” (BEN-GURION UNIVERSITY OF THE NEGEV RESEARCH AND DEVELOPMENT …, priority 2013, dated 2018).

SMILES strings stand for the structures. “Also recorded” adds a separate entry of the source.

Experiment [1] concerns STZ-induced diabetic Wistar rats. The experiment can be described thus: Blood glucose in STZ-induced diabetic rats treated with AGS-500. Type of experiment: in vivo, rat. On the procedure:
The effect of compounds of the present invention on diabetes per se, and disease complications arising as a result of diabetes was evaluated. Streptozotocin treatment of mice and rats are known in vivo diabetes models. Intraperitoneal injections of reduced STZ concentrations (35 mg/kg) was evaluated in mice and rats, in order to determine whether in a model causing only partial damage to pancreatic islet β-cells, whether the compounds of this invention would be helpful. Eight-week-old Wistar female rats received two doses of STZ administered intraperitoneally (60 or 35 mg/kg in 0.1M Citrate buffer; at 5-day intervals), which induced diabetes in all animal, since not all rats that received a single injection of STZ became diabetic in this model. These animals were then treated every 3 days with a subcutaneous injection of compound AGS-500 (6 mg/kg) for from 2-5 weeks to generate a Type I Diabetes phenotype. Blood glucose levels were monitored every 3 days in the rats. Ten weeks after the beginning of this study, each mice group was divided into 2 sub-groups, one of each also received insulin (4 U\Kg) every 2 days, except for the non-diabetic sub-groups. Acetic acid (1%) served as the vehicle control. Diabetes was diagnosed when non-fasting blood glucose levels were above 200 mg/dl. Extension of these studies included treatment of rats divided into 4 groups, as follows: 3 groups received 2 injections of STZ (35 mg/kg) at day 0′ and day 15′, serving as the diabetic group, while the non-diabetic group received 2 injections of Citrate buffer in accordance with the stated schedule. One diabetic group was administered AGS-500 intraperitoneally (6 mg/kg) every 12 hours (12 h) starting at day 4′, the second diabetic group received DMSO every 12 h starting at day 4′, and a third diabetic group was not injected with either AGS-500 or DMSO.

In experiment [2] the test system is islets isolated from ICR mice. The experiment can be described thus: γ-H2AX staining in isolated islet cells treated with STZ. It counts as cell-based, mouse. The conditions noted are these: STZ 1.5 mM; AGS-500 50 nM, 100 nM, 250 nM; 4 hours. Here is the method:
Islets were isolated from 8-10-week-old ICR mice. 30 islets in each group were treated with STZ (1.5 mM) and DMSO or AGS-500 in various concentrations (50 nM, 100 nM, 250 nM) for 4 hours. After 4 h incubation, the islets were enzymatically separated to single cells, cyto-spun and stained with γ-H2AX-specific antibody (A; representative picture—γ-H2AX (light grey), Dapi (dark grey)). Magnification: ×60.
The treatment of rats with AGS-compounds maintained a large β-cell mass in STZ-treated rats. In order to determine whether β-cell mass preservation was a result islet cell protection from STZ-induced DNA damage, γ-H2AX staining was assessed. Phosphorylated gamma H2AX (γ-H2AX) is essential for recognition and repair of DNA double strand breaks. H2AX histone becomes rapidly phosphorylated at its carboxyl terminus to form the so-called γ-H2AX at double strand break sites.
Islets were isolated from 8-10-week-old ICR mice and were treated with STZ (1.5 mM) and DMSO or AGS-500 in various concentrations (50 nM, 100 nM, 250 nM) for 4 hours. After a 4 h incubation, the islets were separated into single cells, cyto-spun, and stained with anti-γ-H2AX-specific antibody for the detection of DNA double strand breaks (FIG. 6).

[3] abbreviates: STZ rats, AGS-500 6 mg/kg s.c. every 3 days.

As to `CC(c1cc(Br)c(O)c(Br)c1)(c1cc(Br)c(O)c(Br)c1)c1cc(Br)c(O)c(Br)c1` [AGS-500, 1,1,1-tris (4-hydroxy-3,5-dibromo-phenyl)-ethane], in experiment [1] (setting [3]), the Blood glucose levels turned out to be 275 ± 18 mg/dL and the “effect on the rat hyperglycemic state” value is “no effect”. In addition, in experiment [1] (rats, STZ 35 mg/kg day 0 and 15, AGS-500 6 mg/kg i.p. every 12 h from day 4, FIG. 1A), the “blood glucose levels of non-fasting animals” value was “No reduction”. Besides, in experiment [1] (rats, STZ 35 mg/kg day 0 and 15, AGS-500 6 mg/kg i.p. every 12 h from day 4, FIG. 1B), the “fasting glucose levels (following 12 h fast)” value is recorded as “significant reduction of blood glucose levels to normal; also recorded: Reduction in Blood Glucose Level”. In experiment [2], the “number of γ-H2AX-stained cells” value is “dose-dependent decrease in the number of γ-H2AX-stained cells; also recorded: Reduced γ-H2AX Staining”.
